Measured values taken from patent US20220202792A1, “METHODS AND COMPOSITIONS FOR TREATING CHRONIC INFLAMMATORY INJURY, METAPLASIA, DYSPLASIA AND CANCERS OF EPITHELIAL TISSUES” (University of Houston System, priority 2019, published 2022).

Key:
[1] = test system: BE, dysplasia and cancer stem cells; assay: 3D (ALI) culture of patient-matched BE, dysplasia and cancer stem cells; format: cell-based, human; conditions: combined with Ponatinib
From the text: FIG. 5B. Left, Scanned images of top view of BE, dysplasia and cancer stem cells (green) generated ALI structures in the presence of absence of drug combinations.

[2] = test system: aggressive breast cancer model; conditions: in vivo; cited from earlier work
[3] = test system: Barrett's stem cells (GFP) and esophageal squamous stem cells (RFP); assay: 3D air-liquid interface (ALI) co-culture of Barrett's and esophageal stem cells; format: cell-based, human; conditions: in the presence of Ponatinib
Procedure: A 3D culture model was generated to mimic Barrett's Esophagus in vitro. The esophageal squamous stem cells and Barrett's stem cells were co-cultured in the transwell insert. Following the creation of air-liquid interface, it was observed that the BE islands located among well-differentiated squamous epithelium that well recapitulated the histology of human BE in the patient. Given the similarity of this artificial model and human pathology, the hits were tested in this system to further validate them. […] The esophageal squamous stem cells were labeled with red fluorescent protein (RFP) while Barrett's stem cells were labeled with green fluorescent protein (GFP). Without the treatment, it was observed that a mixture of GFP and RFP labeled cells in culture.

[4] = test system: Barrett's stem cells and Esophageal stem cells; assay: Co-culture of Barrett's stem cell lines and Esophageal stem cells; format: cell-based, human; conditions: in the presence of Ponatinib
[5] = test system: esophageal squamous stem cells (ESO stem cells, Krt5+); assay: High throughput chemical screening and dose response on GFP-labeled stem cells; format: cell-based, human; conditions: in the presence of 1 μM Ponatinib

## Clc1ccc(N/N=C(\c2ccccc2)c2ccccn2)nc1 [JIB04]
[1]
  eradication of BE, dysplasia and cancer stem cells in 3D (ALI) culture: eradicate
[2]
  tumor burden and survival of mice: reduces tumor burden and prolongs survival
[3]
  cross sections of the ALI structures: intact esophageal squamous epithelium without any existence of Barrett's epithelium
[3]; eight Barrett's stem cell lines
  GFP labeled Barrett's stem cells in 3D ALI co-culture: disappearance
[4]
  effect on Esophageal squamous stem cells in co-culture: promoting
[4]; nine Barrett's stem cell lines
  lethality to Barrett's stem cells in co-culture: uniform lethality to all Barrett's stem cells
[5]
  effect on Esophageal stem cells: without affecting
